Activity calls are given as the source filed them. The rule behind the calls is not given here.
Experiments:
Plutella xylostella [1] = assay: Reduction of oviposition in adult Plutella xylostella (diamondback moth) in cabbage leaves assessed as number of egg oviposited after 24 hr by no choice test; assay type: functional, organism-based
Plutella xylostella [2] = assay: Insecticidal activity against larvae of Plutella xylostella (diamondback moth) on cabbage leaves after 5 days; assay type: functional, organism-based
Plutella xylostella [3] = assay: Reduction of oviposition in adult Plutella xylostella (diamondback moth) in aluminium foil assessed as number of egg oviposited after 24 hr by two choice test; assay type: functional, organism-based
Plutella xylostella [4] = assay: Insecticidal activity against third-instar of Plutella xylostella (diamondback moth) on cabbage leaves assessed as mortality after 5 days; assay type: functional, organism-based
Plutella xylostella [5] = assay: Reduction of oviposition in adult Plutella xylostella (diamondback moth) in aluminium foil assessed as number of egg oviposited after 24 hr by no choice test; assay type: functional, organism-based
Plutella xylostella [6] = assay: Reduction of oviposition in adult Plutella xylostella (diamondback moth) in cabbage leaves assessed as number of egg oviposited after 24 hr by two choice test; assay type: functional, organism-based
Plutella xylostella [7] = assay: Antifeedant activity against fourth-instar of Plutella xylostella (diamondback moth) on cabbage leaves assessed as leaf disks damage; assay type: functional
Plutella xylostella [8] = assay: Antifeedant activity against third-instar of Plutella xylostella (diamondback moth) on cabbage leaves assessed as leaf disks damage; assay type: functional
Plutella xylostella [9] = assay: Insecticidal activity against Plutella xylostella (diamondback moth) eggs on cabbage leaves assessed as eggs developed to neonates after 5 days relative to control; assay type: functional
Plutella xylostella [10] = assay: Antifeedant activity against larvae of Plutella xylostella (diamondback moth) on cabbage leaves assessed as weight of larvae after 5 days; assay type: functional
Plutella xylostella [11] = assay: Antifeedant activity against neonates of Plutella xylostella (diamondback moth) on cabbage leaves assessed as leaf disks damage; assay type: functional
Plutella xylostella [12] = assay: Antifeedant activity against second-instar of Plutella xylostella (diamondback moth) on cabbage leaves assessed as leaf disks damage; assay type: functional
Plutella xylostella [13] = assay: Antifeedant activity against larvae of Plutella xylostella (diamondback moth) on cabbage leaves assessed as diameter of larvae after 5 days; assay type: functional
Plutella xylostella [14] = assay: Antifeedant activity against larvae of Plutella xylostella (diamondback moth) on cabbage leaves assessed as length of larvae after 5 days; assay type: functional
Plutella xylostella [15] = assay: Insecticidal activity against neonates of Plutella xylostella (diamondback moth) on cabbage leaves assessed as survival after 5 days; assay type: functional
Plutella xylostella [16] = assay: Insecticidal activity against third-instar of Plutella xylostella (diamondback moth) on cabbage leaves assessed as survival after 3 days; assay type: functional

## C/C=C(\C)C(=O)O[C@H]1C[C@@H](OC(C)=O)[C@@]2(C(=O)OC)CO[C@H]3[C@@H](O)[C@@](C)([C@]45O[C@@]4(C)[C@@H]4C[C@H]5O[C@@H]5OC=C[C@@]54O)[C@H]4[C@]1(CO[C@]4(O)C(=O)OC)[C@@H]32 (stereo in doubt; form 1)
Plutella xylostella [1]
  Activity: inactive
Plutella xylostella [2]
  Activity: Active
Plutella xylostella [3]
  Activity: Active
Plutella xylostella [4]
  Activity: Active
Plutella xylostella [5]
  Activity: inactive
Plutella xylostella [6]
  Activity: inactive

## C/C=C(\C)C(=O)O[C@H]1C[C@@H](OC(C)=O)[C@@]2(C(=O)OC)CO[C@H]3[C@@H](O)[C@@](C)([C@]45O[C@@]4(C)[C@@H]4C[C@H]5O[C@@H]5OC=C[C@@]54O)[C@H]4[C@]1(CO[C@]4(O)C(=O)OC)[C@@H]32 (stereo in doubt; form 2)
Plutella xylostella [1]
  Activity: inactive
Plutella xylostella [2]
  Activity: Active
Plutella xylostella [3]
  Activity: Active
Plutella xylostella [4]
  Activity: Active
Plutella xylostella [5]
  Activity: inactive
Plutella xylostella [6]
  Activity: inactive

## C/C=C(\C)C(=O)O[C@H]1C[C@@H](OC(C)=O)[C@@]2(C(=O)OC)CO[C@H]3[C@@H](O)[C@@](C)([C@]45O[C@@]4(C)[C@@H]4C[C@H]5O[C@@H]5OC=C[C@@]54O)[C@H]4[C@]1(CO[C@]4(O)C(=O)OC)[C@@H]32 (stereo in doubt; form 1) [AZADIRACHTIN A]
Plutella xylostella [7]
  Activity: 10.1%
Plutella xylostella [8]
  Activity: 5.1%
Plutella xylostella [9]
  Activity: 75.2%
Plutella xylostella [10]
  Activity: 0.013 mg
Plutella xylostella [11]
  Activity: <=2%
Plutella xylostella [12]
  Activity: 2.1%
Plutella xylostella [13]
  Activity: 2 mm
Plutella xylostella [14]
  Activity: 13.5 mm

## C/C=C(\C)C(=O)O[C@H]1C[C@@H](OC(C)=O)[C@@]2(C(=O)OC)CO[C@H]3[C@@H](O)[C@@](C)([C@]45O[C@@]4(C)[C@@H]4C[C@H]5O[C@@H]5OC=C[C@@]54O)[C@H]4[C@]1(CO[C@]4(O)C(=O)OC)[C@@H]32 (stereo in doubt; form 2) [AZADIRACHTIN A]
Plutella xylostella [9]
  Activity: 66.2%
Plutella xylostella [10]
  Activity: 0.012 mg
Plutella xylostella [13]
  Activity: 2.5 mm
Plutella xylostella [14]
  Activity: 14.7 mm

## C/C=C(\C)C(=O)O[C@H]1C[C@@H](OC(C)=O)[C@@]2(C(=O)OC)CO[C@H]3[C@@H](O)[C@@](C)([C@]45O[C@@]4(C)[C@@H]4C[C@H]5O[C@@H]5OC=C[C@@]54O)[C@H]4[C@]1(CO[C@]4(O)C(=O)OC)[C@@H]32 (stereo in doubt; form 3)
Plutella xylostella [1]
  Activity: inactive
Plutella xylostella [2]
  Activity: Active
Plutella xylostella [3]
  Activity: Active
Plutella xylostella [4]
  Activity: Active
Plutella xylostella [5]
  Activity: inactive
Plutella xylostella [6]
  Activity: inactive

## C/C=C(\C)C(=O)O[C@H]1C[C@@H](OC(C)=O)[C@@]2(C(=O)OC)CO[C@H]3[C@@H](O)[C@@](C)([C@]45O[C@@]4(C)[C@@H]4C[C@H]5O[C@@H]5OC=C[C@@]54O)[C@H]4[C@]1(CO[C@]4(O)C(=O)OC)[C@@H]32 (stereo in doubt; form 3) [AZADIRACHTIN A]
Plutella xylostella [15]
  Survival: 50%
Plutella xylostella [16]
  Survival: <60%
Plutella xylostella [9]
  Activity: 61.6%
Plutella xylostella [10]
  Activity: 0.016 mg
Plutella xylostella [13]
  Activity: 2.2 mm
Plutella xylostella [14]
  Activity: 14.8 mm

From ChEMBL document CHEMBL3045891, “Effects of three neem-based insecticides on diamondback moth (lepidoptera: plutellidae)” (2003)
